# Data as given in patent US12576163B2, “Fluorescent contrast agent with targeting function, and preparation method and use thereof” (priority 2022, dated 2026).
# B1: IL-4: interleukin-4, M2 macrophage inducer (protein, UniProt P05112 25-153, looked up)
# Interleukin-4: HKCDITLQEIIKTLNSLTEQKTLCTELTVTDIFAASKNTTEKETFCRAATVLRQFYSHHEKDTRCLGATAQQFHRHKQLIRFLKRLDRNLWGLAGLNSCPVKEANQSTLENFLERLKTIMREKYSKCSS
# Columns and labels:
# [1] = UV-VIS and fluorescence spectroscopy; type: physicochemical; settings: UV-VIS spectrum
# Method: A size of the contrast agent was detected with the Zetasizer nano-ZS. 10 μL of each of MR780 NPs, FITC-MR780 NPs, and FITC-DSPC NPs was taken and added dropwise on a mesh, air-dried, stained with phosphotungstic acid (10 μL, 3.0%), then washed with deionized water, and air-dried. Morphological images of the mannose contrast agents were acquired through high-resolution transmission electron microscopy (HRTEM). Since MR780 NPs need to emit reduced glutathione-responsive fluorescence in a tumor microenvironment, it must be ensured that MR780 NPs can stably restore the fluorescence signal after reacting with reduced glutathione. 10 μL of MR780 NPs was thoroughly mixed with 10 mM reduced glutathione, and a resulting mixture was shaken at room temperature in the dark; and the fluorescence restoration of MR780 NPs in each group was tested at 10 min, 1 h, 2 h, and 4 h. The UV-VIS spectroscopy and fluorescence spectroscopy were conducted respectively on a UV-VIS spectrophotometer and a fluorescence spectrophotometer.
# [2] = test system: induced RAW264.7 cells (CD206); settings: pre-blocking 2 h at 10-100 mg/mL, then FITC-MR780 NPs 40 μg/mL 2 h; FCM
# Method: After 2 h of co-incubation, the DMEM was changed, FITC-MR780 NPs 40 μg/mL was added in each group, and then co-incubation was conducted for 2 h. A fluorescence signal of FITC in cells of each group was determined by FCM.
# 2 h before the blocking experiment, free mannose was added in advance at different concentrations, then FITC-MR780 NPs were added, and then co-incubation was conducted for 2 h. An intracellular fluorescence intensity of FITC was determined by FCM.
# [3] = test system: CD206 on a surface of RAW264.7 cells; test: Induction of macrophage differentiation, CD206 expression by FCM; type: cell-based, mouse; settings: 24 h with inducer (IL-4 20 ng/mL; LPS 100 ng/mL)
# Method: RAW264.7 cells at a logarithmic growth phase were plated in a 6-well plate at a density of 1×10^5 cells/mL, then a DMEM was added at 2 mL/well, the plate was incubated overnight, and then interleukin-4 (IL-4) was added to the culture at a final concentration of 20 ng/mL. The IL-4 was an M2 macrophage inducer. In a control group, an M1 macrophage inducer lipopolysaccharide (LPS) was added to the culture at a final concentration of 100 ng/mL and then incubated for 24 h.
# The expression of CD206 on a surface of RAW264.7 cells before and after induction was determined by FCM. Cells were digested and centrifuged, 0.5 μg of mouse CD16/32 monoclonal antibody (mAb) was added, and a resulting mixture was incubated at room temperature for 10 min. Then 0.5 mL of a 1× fixation buffer was added, a resulting mixture was incubated in the dark for 20 min and then centrifuged at 350 g for 5 min, and a resulting supernatant was discarded. 2 mL of a membrane disruption solution was added, and a resulting suspension was centrifuged at 350 g for 5 min; and the operation was repeated once. […] 200 μL of PBS was added to resuspend the cells, and the expression of CD206 on a cell surface in each of the two groups was detected by FCM.
molecule,measurement,setting,value
CCCN1/C(=C/C=C2\CCCC(/C=C/C3=[N+](CCC)c4ccccc4C3(C)C)=C2Cl)C(C)(C)c2ccccc21.[I-] [IR780],UV-VIS maximum absorbance / maximum absorption peak,[1],780 nm
"Nc1ccc(O[C@H]2O[C@H](CO)[C@@H](O)[C@H](O)[C@@H]2O)cc1 [free mannose, 4-aminophenyl-α-D-mannopyranoside]",phagocytosis of cells for FITC-MR780 NPs after pre-blocking,[2],decreases significantly
B1,expression of CD206,[3],81.22±0.64%
